One series deals with CYP2D6 (Homo sapiens, UniProt P10635). The series can be described thus: CYP inhibition assay CYP2D6. Format: in vitro ADME. The settings on record: fluorescence detection method; read-out: CYPs enzyme inhibition, IC50, CYP2D6.
The target in another series is CYP2C9 (Homo sapiens, UniProt P11712). Put plainly: CYP inhibition assay CYP2C9. Format: in vitro ADME. The settings on record: fluorescence detection method; read-out: CYPs enzyme inhibition, IC50, CYP2C9.
Series [1] is described as follows: Tissue distribution in mice. The settings on record: ICR mice, 30 mg/kg oral, n = 3. Format: in vivo. As for the experimental part:
In addition, tissue distribution of 17a was investigated. 17a was orally administered to mice at 30 mg/kg, and 2 was administrated as a positive control (Figure 5). […] Significant activity of 17a in the OLTT appeared to result from high concentration in the small intestine, even though bioavailability of 17a was not great in mice.
Figure 5. Tissue distribution of 17a in mice. 17a and 2 were orally administered to ICR mice at 30 mg/kg (n = 3). (a) AUC values of 17a and 2 in indicated tissues. […] Data represent mean value. (b) Tissue-to-plasma (T/P) ratio of 17a and 2. S.I.: small intestine, L.I.: large intestine.

A short description of series [2]: In vitro microsomal stability, dog. It is filed as in vitro ADME. The settings on record: dog liver microsomes, 5 μM, 60 min.
Series [3] can be described thus: In vitro microsomal stability, rat. It is filed as in vitro ADME. The settings on record: rat liver microsomes, 5 μM, 60 min.
Series [4] can be described thus: In vitro microsomal stability, mouse. Format: in vitro ADME. The settings on record: mouse liver microsomes, 5 μM, 60 min.
A short description of series [5]: Pharmacokinetic profile in ICR mice. The settings on record: mouse, in vivo.
The target of a further series is T1, hACAT2 (Homo sapiens, UniProt O75908).
T1 sequence (O75908 1-522): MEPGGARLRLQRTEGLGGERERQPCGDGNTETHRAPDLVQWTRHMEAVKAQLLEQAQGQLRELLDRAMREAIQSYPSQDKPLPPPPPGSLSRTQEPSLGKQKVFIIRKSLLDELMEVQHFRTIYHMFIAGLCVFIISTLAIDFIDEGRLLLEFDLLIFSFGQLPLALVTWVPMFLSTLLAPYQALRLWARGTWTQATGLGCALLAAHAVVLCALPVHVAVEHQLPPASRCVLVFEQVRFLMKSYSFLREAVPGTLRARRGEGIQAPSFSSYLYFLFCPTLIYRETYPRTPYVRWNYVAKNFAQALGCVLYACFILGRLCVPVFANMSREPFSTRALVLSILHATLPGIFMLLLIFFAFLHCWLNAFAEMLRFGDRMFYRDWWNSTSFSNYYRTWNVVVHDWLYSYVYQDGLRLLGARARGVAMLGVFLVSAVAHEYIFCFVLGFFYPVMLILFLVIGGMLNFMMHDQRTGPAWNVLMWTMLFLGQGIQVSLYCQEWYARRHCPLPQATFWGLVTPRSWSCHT
Put plainly: Enzymatic assay hACAT2. Format: biochemical. From the text:
(§1) ACATs have sequence homology to DGAT-1 and play essential roles in cholesterol homeostasis. 17b was not explored in the enzymatic assays due to its poor pharmacokinetic profile.

The target of another series is T2, hACAT1 (Homo sapiens, UniProt P35610).
T2 sequence (P35610 1-550): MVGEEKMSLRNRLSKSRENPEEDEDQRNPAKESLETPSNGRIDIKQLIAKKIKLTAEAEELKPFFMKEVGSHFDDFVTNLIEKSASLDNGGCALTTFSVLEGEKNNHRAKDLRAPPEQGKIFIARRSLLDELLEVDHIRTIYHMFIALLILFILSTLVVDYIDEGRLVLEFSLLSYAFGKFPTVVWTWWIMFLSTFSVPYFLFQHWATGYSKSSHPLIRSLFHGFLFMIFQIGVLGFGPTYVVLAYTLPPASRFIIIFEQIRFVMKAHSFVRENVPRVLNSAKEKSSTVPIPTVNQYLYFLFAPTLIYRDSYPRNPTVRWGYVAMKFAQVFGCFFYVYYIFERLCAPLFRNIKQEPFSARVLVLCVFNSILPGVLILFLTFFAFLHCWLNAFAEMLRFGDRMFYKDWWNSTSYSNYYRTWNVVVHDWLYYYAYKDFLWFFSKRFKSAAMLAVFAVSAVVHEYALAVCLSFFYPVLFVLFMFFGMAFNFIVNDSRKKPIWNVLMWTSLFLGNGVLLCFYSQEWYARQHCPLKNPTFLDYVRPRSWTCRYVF
The series can be described thus: Enzymatic assay hACAT1. It is filed as biochemical.
Excerpt: as §1

Series [6] deals with plasma TAG level. The series can be described thus: Oral lipid tolerance test (OLTT), mouse. Format: in vivo. The settings on record: ICR mice, 17a 3 mg/kg po before corn oil, n = 5. The method, then:
Male, Institute of Cancer Research (ICR) mice were obtained from OrientBio Inc. (Republic of Korea). ICR mice (8-weeks old, n = 5/group) fasted 16 h, received 5 mL/kg corn oil via oral administration (p.o.) 30 min after compound administration. Plasma was collected at different time points (0, 1, 2, and 4 h).
(§2) To determine in vivo efficacy, we evaluated the activity of 17a against serum TAG level induced by the oral administration of corn oil (oral lipid tolerance test, OLTT; Figures 3 and 4), since intestinal targeted DGAT-1 inhibition results in a reduced serum TAG level. 17a was orally administered to ICR mice at 3 mg/kg or to dogs at 1 mg/kg before administration of corn oil.
Figure 3. Effect of 17a in the oral lipid tolerance test (n = 5, ***p < .001). Serum TG (or TAG) concentration was measured before and 1, 2, and 4 h after oral administration of corn oil in ICR mice treated with 17a (3 mg/kg) or 2 (1 mg/kg). Vehicle for 2: 0.5% methylcellulose/0.5% Tween80 in distilled water, vehicle for 17a: 0.5% Tween80 in distilled water.

The test system of series [7] is plasma TAG level. Put plainly: Oral lipid tolerance test (OLTT), dog. Format: in vivo, Beagle dogs. The settings on record: dogs, 17a 1 mg/kg po, n = 2. The method, then: Beagle dogs (9 months old, n = 2/group) were obtained from Woojung Bio Inc. (Republic of Korea) were fasted for 16 h and received heavy cream (2.7 mL/kg), glucose (1 g/kg), water (5.3 mL/kg), and acetaminophen (20 mg/kg p.o.) 1 h after compound administration. Blood samples were collected at –0.5, 0, 1, 2, and 4 h.
as §2
Figure 4. Effect of 17a in a canine oral lipid tolerance test (n = 2, *p < .05; ***p < .001). The dog was treated with 17a (po. 1 mg/kg) or 2 (po. 1 mg/kg) before oral administration of corn oil. Vehicle for 2: 0.5% methylcellulose/0.5% Tween80 in distilled water, vehicle for 17a: 0.5% Tween80 in distilled water.

SMILES strings stand for the structures.

CYP2C9, sequence (P11712 whole entry): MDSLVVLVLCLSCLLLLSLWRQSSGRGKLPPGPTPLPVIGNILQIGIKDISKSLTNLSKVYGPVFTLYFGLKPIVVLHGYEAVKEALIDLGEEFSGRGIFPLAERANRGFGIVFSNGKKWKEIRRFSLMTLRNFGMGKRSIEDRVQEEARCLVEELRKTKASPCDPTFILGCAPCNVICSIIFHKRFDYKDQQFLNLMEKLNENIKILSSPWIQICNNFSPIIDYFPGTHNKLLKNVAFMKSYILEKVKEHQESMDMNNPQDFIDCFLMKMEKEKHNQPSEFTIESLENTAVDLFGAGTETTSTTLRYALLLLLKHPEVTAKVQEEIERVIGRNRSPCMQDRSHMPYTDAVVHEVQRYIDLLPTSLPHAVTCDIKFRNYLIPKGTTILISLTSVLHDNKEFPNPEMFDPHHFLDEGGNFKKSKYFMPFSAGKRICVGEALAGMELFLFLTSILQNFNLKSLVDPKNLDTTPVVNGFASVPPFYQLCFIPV
CYP2D6, sequence (P10635 whole entry): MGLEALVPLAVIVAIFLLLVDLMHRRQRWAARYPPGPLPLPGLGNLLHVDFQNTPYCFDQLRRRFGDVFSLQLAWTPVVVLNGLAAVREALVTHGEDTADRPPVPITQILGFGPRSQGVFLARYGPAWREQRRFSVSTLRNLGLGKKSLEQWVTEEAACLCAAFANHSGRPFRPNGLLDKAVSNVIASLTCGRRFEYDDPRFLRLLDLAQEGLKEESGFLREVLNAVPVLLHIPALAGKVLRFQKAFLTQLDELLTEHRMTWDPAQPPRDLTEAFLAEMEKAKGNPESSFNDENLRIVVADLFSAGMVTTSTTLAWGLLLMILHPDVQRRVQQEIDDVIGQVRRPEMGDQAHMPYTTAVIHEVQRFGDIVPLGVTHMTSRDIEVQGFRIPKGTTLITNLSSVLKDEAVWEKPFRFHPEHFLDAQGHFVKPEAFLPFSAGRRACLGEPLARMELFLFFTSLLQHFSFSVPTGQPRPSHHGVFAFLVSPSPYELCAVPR

As for `O=C([O-])C[C@H]1CC[C@@H](c2csc3c(-c4ccc(NC(=O)Nc5cccc(Cl)c5)cc4)ncnc32)CC1.[Na+]` [Compound 17a, Sodium cis-2–(4–(4-(4-(3–(3-chlorophenyl)ureido)phenyl)thieno[3,2-d]pyrimidin-7-yl)cyclohexyl)acetate], the IC50 was 8.7 µM at CYP2D6, 2.9 µM at CYP2C9, over 10 µM on hACAT2 and over 10 µM against hACAT1. For the same compound, the “Tissue distribution (concentration levels in tissues)” value in [1] was “in the liver and small intestine were much higher than in other tissues”. The “Microsomal stability, remaining percent” value in series [2] stood at 82%; in series [3], 87%; in series [4] it was 82%. In series [5] (oral 10 mg/kg vs iv 3 mg/kg), this compound yielded a bioavailability of 19%. Further, the peak level in [5] (oral 10 mg/kg, n = 3) (Cmax) was 479 ng/mL. In addition, the half-life in series [5] (oral 10 mg/kg, n = 3) was 1.2 h. The AUC in series [5] (oral 10 mg/kg, n = 3, read-out: AUC 0∼24) was 861 ng·h/mL. Also, the “Reduction of plasma TAG level in OLTT” value with plasma TAG level [6] is listed as “significant activity, as potent as compound 2”. In addition, the “Reduction of TAG in OLTT” value in the series with plasma TAG level [7] is recorded as “significant reduction of TAG”.

The values above are taken from publication PMC6882492, “Synthesis and biological evaluation of novel thienopyrimidine derivatives as diacylglycerol acyltransferase 1 (DGAT-1) inhibitors” (Journal of Enzyme Inhibition and Medicinal Chemistry, 2019).
